Results: ChEMBL document CHEMBL3745645, “Synthesis, in vitro antitumor activity, dihydrofolate reductase inhibition, DNA intercalation and structure-activity relationship studies of 1,3,5-triazine analogues” (Bioorg Med Chem Lett, 2016)
Active and inactive are the calls of the source. The calls are words filed in the database; no cut-off is given here.

Experiments:
MDA-MB-468 = assay: Cytotoxicity against human MDA-MB-468 cells at 10 uM after 48 hrs by SRB assay; assay type: functional; settings: MDA-MB-468, 48 h, read-out: GI
[1] = Cytotoxicity against human SKOV3 cells at 10 uM after 48 hrs by SRB assay; assay type: functional; settings: SK-OV-3, 48 h, read-out: GI
[2] = Cytotoxicity against human OVCAR8 cells at 10 uM after 48 hrs by SRB assay; assay type: functional; settings: OVCAR-8, 48 h, read-out: GI
[3] = Cytotoxicity against human RXF393 cells at 10 uM after 48 hrs by SRB assay; assay type: functional; settings: RXF 393, 48 h, read-out: GI
CCRF-CEM = assay: Cytotoxicity against human CCRF-CEM cells at 10 uM after 48 hrs by SRB assay; assay type: functional; settings: read-out: GI
[4] = (§1) Cytotoxicity against human TK10 cells at 10 uM after 48 hrs by SRB assay; assay type: functional; settings: TK-10, 48 h, read-out: GI
K562 [5] = assay: Cytotoxicity against human K562 cells at 10 uM after 48 hrs by SRB assay; assay type: functional; settings: K562, 48 h, read-out: GI
SK-MEL-2 = assay: Cytotoxicity against human SK-MEL-2 cells at 10 uM after 48 hrs by SRB assay; assay type: functional; settings: SK-MEL-2, 48 h, read-out: GI
[6] = Cytotoxicity against human HCT116 cells at 10 uM after 48 hrs by SRB assay; assay type: functional; settings: HCT-116, 48 h, read-out: GI
[7] = Cytotoxicity against human UACC257 cells at 10 uM after 48 hrs by SRB assay; assay type: functional; settings: UACC-257, 48 h, read-out: GI
[8] = Cytotoxicity against human SF268 cells at 10 uM after 48 hrs by SRB assay; assay type: functional; settings: SF-268, 48 h, read-out: GI
NCI-H23 = assay: Cytotoxicity against human NCI-H23 cells at 10 uM after 48 hrs by SRB assay; assay type: functional; settings: NCI-H23, 48 h, read-out: GI
NCI-H460 = assay: Cytotoxicity against human NCI-H460 cells at 10 uM after 48 hrs by SRB assay; assay type: functional; settings: NCI-H460, 48 h, read-out: GI
HT-29 = assay: Cytotoxicity against human HT-29 cells at 10 uM after 48 hrs by SRB assay; assay type: functional; settings: HT-29, 48 h, read-out: GI
MDA-MB-435 = assay: Cytotoxicity against human MDA-MB-435 cells at 10 uM after 48 hrs by SRB assay; assay type: functional; settings: MDA-MB-435, 48 h, read-out: GI
[9] = Cytotoxicity against human SF295 cells at 10 uM after 48 hrs by SRB assay; assay type: functional; settings: SF-295, 48 h, read-out: GI
HCT-15 = assay: (§2) Cytotoxicity against human HCT15 cells at 10 uM after 48 hrs by SRB assay; assay type: functional
HCC 2998 = assay: (§3) Cytotoxicity against human HCC2998 cells at 10 uM after 48 hrs by SRB assay; assay type: functional
786-0 [10] = assay: Cytotoxicity against human 786-0 cells at 10 uM after 48 hrs by SRB assay; assay type: functional; settings: 786-0, 48 h, read-out: GI
[11] = Cytotoxicity against human PC3 cells at 10 uM after 48 hrs by SRB assay; assay type: functional; settings: PC-3, 48 h, read-out: GI
OVCAR-4 = assay: (§4) Cytotoxicity against human OVCAR4 cells at 10 uM after 48 hrs by SRB assay; assay type: functional
[12] = Cytotoxicity against human UACC62 cells at 10 uM after 48 hrs by SRB assay; assay type: functional; settings: UACC-62, 48 h, read-out: GI
[13] = Cytotoxicity against human RPMI8226 cells at 10 uM after 48 hrs by SRB assay; assay type: functional; settings: RPMI-8226, 48 h, read-out: GI
[14] = Cytotoxicity against human Hs 578T cells at 10 uM after 48 hrs by SRB assay; assay type: functional; settings: read-out: GI
NCI-H322M = assay: Cytotoxicity against human NCI-H322M cells at 10 uM after 48 hrs by SRB assay; assay type: functional; settings: read-out: GI
[15] = (§5) Cytotoxicity against human BT549 cells at 10 uM after 48 hrs by SRB assay; assay type: functional; settings: BT-549, 48 h, read-out: GI
[16] = Cytotoxicity against human OVCAR3 cells at 10 uM after 48 hrs by SRB assay; assay type: functional; settings: OVCAR-3, 48 h, read-out: GI
HL-60(TB) = assay: Cytotoxicity against human HL-60(TB) cells at 10 uM after 48 hrs by SRB assay; assay type: functional
[17] = Cytotoxicity against human NCI-ADR-RES cells at 10 uM after 48 hrs by SRB assay; assay type: functional; settings: read-out: GI
TK-10 = assay: as §1; assay type: functional
Dihydrofolate reductase = target: T1, Dihydrofolate reductase (Homo sapiens, UniProt P00374); assay: Inhibition of human recombinant DHFR expressed in Escherichia coli by spectrophotometric analysis
T1 sequence (P00374 whole entry): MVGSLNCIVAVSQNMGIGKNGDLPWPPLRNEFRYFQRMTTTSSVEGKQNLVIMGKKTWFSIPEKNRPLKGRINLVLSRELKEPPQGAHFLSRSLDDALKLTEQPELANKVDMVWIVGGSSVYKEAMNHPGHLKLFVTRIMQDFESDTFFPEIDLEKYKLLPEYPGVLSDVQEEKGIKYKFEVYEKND

K562 [18] = assay: Cytotoxicity against human K562 cells after 48 hrs by SRB assay; assay type: functional; settings: K562, 48 h
[19] = Cytotoxicity against human DU145 cells after 48 hrs by SRB assay; assay type: functional; settings: DU-145, 48 h, read-out: LC50 (the source's name)
[20] = as §2; assay type: functional; settings: HCT-15, 48 h, read-out: GI
786-0 [21] = assay: Cytotoxicity against human 786-0 cells after 48 hrs by SRB assay; assay type: functional; settings: 786-0, 48 h, pooled result: one value given for 8 cell lines, strains, targets or settings
[22] = as §3; assay type: functional; settings: HCC 2998, 48 h, read-out: GI
[23] = as §4; assay type: functional; settings: OVCAR-4, 48 h, read-out: GI
[24] = Cytotoxicity against human COLO205 cells after 48 hrs by SRB assay; assay type: functional; settings: COLO 205, 48 h, pooled result: one value given for 7 cell lines, strains, targets or settings
BT-549 = assay: as §5; assay type: functional

| Compound | inhibition of growth at 10 µM (MDA-MB-468) | inhibition of growth at 10 µM [1] | inhibition of growth at 10 µM [2] | inhibition of growth at 10 µM [3] | inhibition of growth at 10 µM (CCRF-CEM) | inhibition of growth at 10 µM (K562 [5]) | inhibition of growth at 10 µM (SK-MEL-2) | inhibition of growth at 10 µM [6] | inhibition of growth at 10 µM [7] | inhibition of growth at 10 µM [8] | inhibition of growth at 10 µM (NCI-H460) | inhibition of growth at 10 µM (HT-29) | inhibition of growth at 10 µM (MDA-MB-435) | inhibition of growth at 10 µM [9] | inhibition of growth at 10 µM (786-0 [10]) | inhibition of growth at 10 µM [13] | inhibition of growth at 10 µM [14] | inhibition of growth at 10 µM (NCI-H322M) | inhibition of growth at 10 µM [16] | other results |
| --- | --- | --- | --- | --- | --- | --- | --- | --- | --- | --- | --- | --- | --- | --- | --- | --- | --- | --- | --- | --- |
| Cc1nc2ccc(Nc3nc(NCCN)nc(Nc4ccc(F)cc4)n3)cc2n1Cc1ccccc1 | 49.5% | 13.2% | 17.7% | 25.8% | 51.9% | 61.3% | 19.9% | 39.7% | 15.9% | 19.2% | 21.8% | 55.5% | 9.38% | 11.6% | 20.5% | 46.2% | 20.5% | 7.76% | 6.85% | inhibition of growth at 10 µM [4]: 26.1%; inhibition of growth at 10 µM (NCI-H23): 10.4%; growth inhibition (GI) (HCT-15): inactive; growth inhibition (GI) (HCC 2998): inactive; inhibition of growth at 10 µM [11]: 26.9%; growth inhibition (GI) (OVCAR-4): inactive; inhibition of growth at 10 µM [12]: 9.33%; inhibition of growth at 10 µM [15]: 17% |
| Cc1nc2cc(Nc3nc(Nc4ccc(F)cc4)nc(-c4ccc(Cl)cc4)n3)ccc2n1Cc1ccccc1 | 25.7% | 7.08% | 37.2% | 31.5% | 96.1% | 66.3% | 16.4% | 49.7% | 31.1% | 45.1% | 28.9% | 44.2% | 33.8% | 9.63% | 8.96% | 99.8% | 24.6% | 5.98% | 42.7% | growth inhibition (GI) (HL-60(TB)): Active; inhibition of growth at 10 µM [17]: 41%; growth inhibition (GI) (TK-10): inactive; IC50 (Dihydrofolate reductase): 42.4 µM; LC50 (K562 [18]): > 100 µM; CC50 [19]: > 100 µM; inhibition of growth at 10 µM [20]: 35.6%; GI50 (786-0 [21]): 11.5 µM; LC50 (concentration killing 50% of cells) (786-0 [21]): > 100 µM; TGI (786-0 [21]): 45.4 µM; inhibition of growth at 10 µM [22]: 18.4%; inhibition of growth at 10 µM [23]: 41.4%; GI50 [24]: 4.97 µM; LC50 [24]: > 100 µM; TGI [24]: 59.8 µM; growth inhibition (GI) (BT-549): inactive |
